Data set [1] deals with IL-2 stimulated pSTAT5 in Tall-1 T cells (JAK3). The experiment in a line: Cellular JAK3 potency assay: inhibition of IL-2 stimulated pSTAT5 in Tall-1 T cells. To be noted: IL-2 300 ng/ml, pSTAT5 AlphaLisa, Tall-1 human T cell line; read-out: Tall-1 (pIC50) (converted). It is filed as cell-based. The procedure, abridged:
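Human Tall-1 T cells (45,000/well) preincubated with compound 1 h at 37 °C, then stimulated with IL-2 (final 300 ng/ml) for 30 min. Lysates read for pSTAT5 (Tyr694/699) by AlphaLISA luminescence. IC50 from signal-versus-concentration curves, reported as pIC50 (mean±SD).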

Data set [2] has as its system IL-2 stimulated pSTAT5 in CD4+ T cells isolated from murine splenocytes (JAK3). The experiment in a line: Inhibition of IL-2 stimulated pSTAT5 in CD4+ T cells isolated from murine splenocytes. It is filed as cell-based. To be noted: Mus musculus, IL-2 7 ng/ml, read-out: pIC50, inhibition of IL-2 stimulated pSTAT5 (converted).
Data set [3] has as its system Caco-2 cell monolayers. The experiment in a line: Caco-2 permeation assay. It is filed as in vitro ADME, human. To be noted: 5 μM, A to B, + Verapamil 25 μM, 120 minutes. The text has this:
Assay 5: Caco-2 Permeation Assay
On the technique in general: Caco-2 cells form a polarised layer with tight junctions and transporters.

A short description of data set [4]: Colon and plasma mouse pharmacokinetics. It is filed as in vivo. To be noted: mouse; ratio of colon AUC to plasma AUC; male Balb/c mice, 10 mg/kg PO. The procedure: Assay 6: Colon and Plasma Mouse Pharmacokinetics
6 male Balb/c mice were administered 10 mg/kg of compound in 1% HPMC+0.1% Tween-80 by PO administration. At 0.5, 2 and 6 hours after dose administration, animals were anesthetized, and terminal blood samples were collected by cardiac puncture, followed by collection of colon contents and colon tissue.
Blood samples were collected into K2EDTA and stored on wet ice until processed to plasma by centrifugation (12,000 rpm at 4° C.). Plasma samples were transferred to cluster tubes and placed on dry ice prior to freezer storage. The colon contents from each animal were collected at each terminal blood collection time point. The colon tissues were flushed with saline and patted dry. The colon and colon content tissues were homogenized using sterile water containing 0.1% formic acid 9:1 (water:tissue, v/w). The homogenized tissues and colon contents were transferred to cluster tubes and placed on dry ice prior to freezer storage. All samples were analyzed using LC/MS/MS against analytical standards.
The composite pharmacokinetic parameters of the compounds were determined by non-compartmental analysis using Phoenix WinNonlin Version 6 (Certara, St. Louis, Mo.) and using mean values from 2 animals/time point. For plasma concentrations below the quantification limit (BQL), the lowest concentration measurable or the BLOQ (below limit of quantification) was used.
A colon to plasma ratio was determined as the ratio of the colon AUC to the plasma AUC.

What is called Kp is the ratio of the level in a tissue or fluid to that in plasma or blood.

With `C=CC(=O)N1CC(COc2cc(-c3ccc(O)c(Cl)c3)cn3cncc23)C1` [Example 12, 1-(3-(((6-(3-chloro-4-hydroxyphenyl)imidazo[1,5-a]pyridin-8-yl)oxy)methyl)azetidin-1-yl)prop-2-en-1-one], the IC50 was 0.0316 to 0.2 µM in data set [1] and less than 1 µM in data set [2]. Also, the “Caco Kp 10^−6 cm/sec” value in data set [3] was “A (A represents a value below 5×10^−6 cm/sec)”. Besides, the Kp in data set [4] is greater than 200.

Consider `C=CC(=O)N1CC(COc2cc(-c3cc(F)c(O)cc3CC)cn3cncc23)C1` [Example 13, 1-(3-(((6-(2-ethyl-5-fluoro-4-hydroxyphenyl)imidazo[1,5-a]pyridin-8-yl)oxy)methyl)azetidin-1-yl)prop-2-en-1-one], for which the figures for the IC50 in data set [1] and in data set [2] were no more than 0.0316 µM and less than 1 µM, respectively. For the same compound, in data set [3], the “Caco Kp 10^−6 cm/sec” value was “A (A represents a value below 5×10^−6 cm/sec)”. In addition, the concentration ratio (Kp) in data set [4] is greater than 200.

Source of the values: US10851102B2, “Imidazole and triazole containing bicyclic compounds as JAK inhibitors” (THERAVANCE BIOPHARMA R&D IP, LLC, priority 2019, dated 2020).
